Experimental data from ChEMBL document CHEMBL1150945, “New p-terphenyl and polyketide metabolites from the sclerotia of Penicillium raistrickii” (1998).
Calls of active or inactive are those of the source. The calls are words filed in the database; no cut-off is given here.

Tests used:
Staphylococcus aureus = assay: Antibacterial activity against Staphylococcus aureus ATCC 29213 at 200 ug/disk by standard disk assay; assay type: functional; conditions: read-out: IZ
Bacillus subtilis = assay: Antibacterial activity against Bacillus subtilis ATCC 6051 at 200 ug/disk by standard disk assay; assay type: functional; conditions: read-out: IZ
Candida albicans = assay: Antifungal activity against Candida albicans ATCC 14053 at 200 ug/disk by standard disk assay; assay type: functional, organism-based
Helicoverpa zea [1] = assay: Insecticidal activity against corn ear worm larvae at 400 to 500 ppm relative to control; assay type: functional
Carpophilus = assay: Antiinsectan activity against Carpophilus hemipterus assessed as reduction in feeding rate at 400 to 500 ppm relative to control; assay type: functional; design: scale not given: the % may be the effect or the level left
Helicoverpa zea [2] = assay: Insecticidal activity against corn ear worm larvae at 500 ppm relative to control; assay type: functional

SMILES | zone of inhibition at 200 µg/disc (Staphylococcus aureus) | zone of inhibition at 200 µg/disc (Bacillus subtilis) | Activity (Candida albicans) | Activity (Helicoverpa zea [1]) | Activity (Carpophilus) | Activity (Helicoverpa zea [2])
Cc1cc(O)c(O)c2oc3cc(O)cc(O)c3c(=O)c12 | 11 mm | 12 mm | inactive |  |  | 
COC1=CC(=O)C[C@@H](C)[C@]12Oc1c(Cl)c(OC)cc(OC)c1C2=O [GRISEOFULVIN] |  |  |  | 70% | 30% | 
COc1c(-c2ccc(O)c(O)c2)cc(O)c2c1oc1cc(O)c(O)cc12 |  |  | inactive |  |  | 
COc1c(-c2ccc(O)c(O)c2)cc(O)c(-c2ccc(O)c(O)c2)c1O | 13 mm |  | inactive |  |  | 28%
